Measurements: patent US10738028B2, “Spiro three-membered ring, spiro five-membered ring peptide deformylase inhibitor and use thereof in antibacteria and anti-tumor” (priority 2016, dated 2020)
In brackets after ≈: the same amount, converted by molar mass. Like-named read-outs stand apart in the source and are kept apart here.

What was measured:
[1] = tested on: Escherichia coli (including ESBLs, non-ESBLs); experiment: MIC, two-fold agar dilution (CLSI), clinical isolates; assay type: cell-based
Summary of the method: (§1)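 CLSI two-fold agar dilution; MIC of test samples read per tested strain.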

[2] = tested on: methicillin-sensitive Staphylococcus aureus (MSSA); experiment: as above; assay type: cell-based
Summary of the method: as §1

[3] = tested on: methicillin-resistant Staphylococcus aureus (MRSA); experiment: as above; assay type: cell-based
Summary of the method: as §1

[4] = tested on: Enterococcus faecalis (EFA); experiment: as above; assay type: cell-based
Summary of the method: as §1

[5] = tested on: methicillin-resistant Staphylococcus epidermidis (MRSE); experiment: as above; assay type: cell-based
Summary of the method: as §1

[6] = tested on: methicillin-sensitive Staphylococcus epidermidis (MSSE); experiment: as above; assay type: cell-based
Summary of the method: as §1

[7] = tested on: HCT-116 colorectal cancer cell line; experiment: CCK-8 proliferation inhibition; assay type: cell-based; conditions: Homo sapiens, HCT-116, 72 h, read-out: HCT116 inhibition rate/%
Summary of the method: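 Proliferation over 72 hours of compound treatment was measured with CCK-8 against a 1‰ DMSO control.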

[8] = MIC in vitro anti-bacterial experiments, Gram-positive bacteria; assay type: cell-based; conditions: lowest MIC reached; read-out: minimum inhibitory concentration against Gram-positive bacteria
From the text: 1. The invention adopts the two-fold agar dilution method recommended by the operating procedure of antimicrobial susceptibility testing set by American Clinical and Laboratory Standards Institute (CLSI) to determine the Minimum Inhibitory Concentration (MIC) of the test samples against the tested strains.

[9] = tested on: methemoglobin in blood samples of three healthy volunteers; experiment: Toxicity on methemoglobin in vitro (whole blood with S9 and NADPH, absorbance at 630 nm); assay type: cell-based, human; conditions: for MetHb % (n = 3): 500 μM compound, whole blood + S9 + NADPH, 5 hours at 37° C.; for probability of methemoglobin formation in blood compared with the control drugs LBM415 and GSK1322322: toxicity test in vitro, in words
Protocol: Because PDF inhibitors such as LBM415 and GSK1322322 can produce active species such as aromatic hydroxylamine and aromatic hydrazines in metabolic process, and cause human methemoglobinemia. To this end, continuous wavelength method was adopted in this invention to scan the absorption spectrum of blood samples in the wavelength range of 500 to 700 nm in the ultraviolet-visible spectrophotometer, and the contents of methemoglobin in blood samples of three healthy volunteers were calculated, after being effected by the synthesized compounds.
Experimental materials: Nicotinamide adenine dinucleotide phosphate (NADPH) reduction system: glucose-6-disodium phosphate, nicotinamide adenine dinucleoside phosphate and glucose-6-phosphate dehydrogenase (purchased from Shanghai yuanye Bio-Technology Co., Ltd) were added to 1 mL of phosphate buffer solution (PBS, pH 7.4), and the mixture was shaked in a shaker type water bath at 37° C. for 10 min, and then cooled to 0° C. Mixed human hepatocytes fraction S9 was purchased from Xenotech (20 mg S9 protein/1 mL suspension medium). Compounds were prepared to stock solution at a concentration of 50 mM, which was stored at −20° C. for use. Dapsone was used as positive control experimental reagent, which was purchased from Sigma Aldrich. 1% w/v triton X-100 was self-prepared. Blood samples were collected using Vacutainer tubes containing EDTA anticoagulants (BD, Franklin Lakes, USA), which were sampled from three healthy volunteers and used immediately after sampling.
Preparation of incubation system for blood samples and drugs: 250 μL of incubation system was consist of 220 μL of whole blood, 25 μL of S9 (final concentration: 2 mg S9 protein/mL incubation solution), 2.5 μL of NADPH form system (final concentration: 10 mM G-6-P, 1 mM NADP, 7.5 Units/mL) and 2.5 μL of stock solution of a compound (final concentration 500 μM). […] of incubation system was placed in an Eppendorf tube and incubated for 5 hours at 37° C. in water bath.
Determination of the content of methemoglobin: 60 μL of an incubated sample was taken and lysed with 3.0 mL of 1% Triton X-100. The content of methemoglobin (MetHb) was measured by an ultraviolet-visible spectrophotometer, with the Triton X-100 solution used as blank control. A sample was placed in a cuvette, 1 minute later, the spectrums of the sample in the wavelength range from 500 nm to 700 nm were recorded. The sample was added with 2 mg of potassium ferricyanide, and was allowed to stay stationary for 2 minutes for completely oxidization of ferrous iron in the sample, and standard spectrum of methemoglobin with saturated potassium ferricyanide. The percentage of methemoglobin formation (MetHb %) was obtained by the ratio of absorbance at 630 nm. MetHb %=(A′−AB′)/AM′, wherein, A′ was the total absorbance of the sample at 630 nm, AB′ was the base absorbance of the reduced blood in the sample at 630 nm, and AM′ was the absorbance of oxidized blood with saturated potassium ferricyanide at 630 nm.

[10] = strain printed MRSA 14-1 (second line of that name, r23, before MRSE 14-2)
[11] = concentration of 30 μM, 72 hours, CCK-8

Structure (SMILES)	MIC (anti-bacterial activity) ([1]; strain ECO+ 14-1) [µg/mL]	MIC (anti-bacterial activity) ([1]; strain ECO+ 14-2) [µg/mL]	MIC (anti-bacterial activity) ([1]; strain ECO− 14-1) [µg/mL]	MIC (anti-bacterial activity) ([1]; strain ECO− 14-2) [µg/mL]	MIC (anti-bacterial activity) ([2]; strain MSSA 14-1) [µg/mL]	MIC (anti-bacterial activity) ([2]; strain MSSA 14-2) [µg/mL]	MIC (anti-bacterial activity) ([2]; strain MSSA 14-3) [µg/mL]	MIC (anti-bacterial activity) ([2]; strain MSSA 14-4) [µg/mL]	MIC (anti-bacterial activity) ([3]; strain MRSA 14-1) [µg/mL]	MIC (anti-bacterial activity) ([3]; strain MRSA 14-2) [µg/mL]	MIC (anti-bacterial activity) ([3]; strain MRSA 14-4) [µg/mL]	MIC (anti-bacterial activity) ([3]; strain MRSA 14-5) [µg/mL]	MIC (anti-bacterial activity) [3, 10] [µg/mL]	MIC (anti-bacterial activity) ([4]; strain EFA 14-1) [µg/mL]	MIC (anti-bacterial activity) ([4]; strain EFA 14-2) [µg/mL]	MIC (anti-bacterial activity) ([4]; strain EFA 14-3) [µg/mL]	MIC (anti-bacterial activity) ([4]; strain EFA 14-5) [µg/mL]	MIC (anti-bacterial activity) ([5]; strain MRSE 14-2) [µg/mL]	MIC (anti-bacterial activity) ([5]; strain MRSE 14-3) [µg/mL]	MIC (anti-bacterial activity) ([5]; strain MRSE 14-4) [µg/mL]	other results
CCCC[C@H](CN(O)C=O)C(=O)N1CC2(CC2)C[C@H]1C(=O)Nc1ccc(C)c(Nc2nccc(-c3cccnc3)n2)c1 [Example 4]	4 (≈ 7 µM)	> 128	> 128	> 128	0.015 (≈ 0.0262 µM)	0.015 (≈ 0.0262 µM)	0.015 (≈ 0.0262 µM)	0.015 (≈ 0.0262 µM)	0.015 (≈ 0.0262 µM)	0.015 (≈ 0.0262 µM)	< 0.008	< 0.008	< 0.008	0.03 (≈ 0.0525 µM)	0.015 (≈ 0.0262 µM)	0.03 (≈ 0.0525 µM)	> 128	< 0.008	< 0.008	< 0.008	MIC (anti-bacterial activity) ([6]; strain MSSE 14-1): 0.015 µg/mL (≈ 0.0262 µM); MIC (anti-bacterial activity) ([6]; strain MSSE 14-2): < 0.008 µg/mL; MIC (anti-bacterial activity) ([6]; strain MSSE 14-3): < 0.008 µg/mL; MIC (anti-bacterial activity) ([6]; strain MSSE 14-4): 0.015 µg/mL (≈ 0.0262 µM); inhibition at 30 µM [7, 11]: 18%; MIC [8]: < 0.008 µg/mL
CCCC[C@H](CN(O)C=O)C(=O)N1CC2(CC2)C[C@H]1C(=O)Nc1nccc(-c2cccnc2)n1 [Example 9]	2 (≈ 4.29 µM)	> 64	> 64	> 64	0.25 (≈ 0.536 µM)	0.5 (≈ 1.07 µM)	0.5 (≈ 1.07 µM)	0.25 (≈ 0.536 µM)	2 (≈ 4.29 µM)	0.5 (≈ 1.07 µM)	2 (≈ 4.29 µM)	0.25 (≈ 0.536 µM)	0.25 (≈ 0.536 µM)	0.5 (≈ 1.07 µM)	0.5 (≈ 1.07 µM)	1 (≈ 2.14 µM)	0.5 (≈ 1.07 µM)	0.25 (≈ 0.536 µM)	0.125 (≈ 0.268 µM)	0.5 (≈ 1.07 µM)	MIC (anti-bacterial activity) ([6]; strain MSSE 14-1): 0.125 µg/mL (≈ 0.268 µM); MIC (anti-bacterial activity) ([6]; strain MSSE 14-2): 0.5 µg/mL (≈ 1.07 µM); MIC (anti-bacterial activity) ([6]; strain MSSE 14-3): 0.25 µg/mL (≈ 0.536 µM); MIC (anti-bacterial activity) ([6]; strain MSSE 14-4): 0.5 µg/mL (≈ 1.07 µM); MetHb % (n = 3) [9]: 1.13 ± 0.06%; probability of methemoglobin formation in blood compared with the control drugs LBM415 and GSK1322322 [9]: lower probability of methemoglobin formation in blood; inhibition at 30 µM [7]: 6%
CCCC[C@H](CN(O)C=O)C(=O)N1CC2(CC2)C[C@H]1C(=O)Nc1cccc(Nc2ncccn2)c1 [Example 8]	1 (≈ 2.08 µM)	64 (≈ 133 µM)	128 (≈ 266 µM)	128 (≈ 266 µM)	0.25 (≈ 0.52 µM)	0.25 (≈ 0.52 µM)	0.25 (≈ 0.52 µM)	0.125 (≈ 0.26 µM)	0.25 (≈ 0.52 µM)	0.25 (≈ 0.52 µM)	0.25 (≈ 0.52 µM)	0.125 (≈ 0.26 µM)	0.125 (≈ 0.26 µM)	0.5 (≈ 1.04 µM)	1 (≈ 2.08 µM)	1 (≈ 2.08 µM)	1 (≈ 2.08 µM)	0.25 (≈ 0.52 µM)	0.06 (≈ 0.125 µM)	0.25 (≈ 0.52 µM)	MIC (anti-bacterial activity) ([6]; strain MSSE 14-1): 0.125 µg/mL (≈ 0.26 µM); MIC (anti-bacterial activity) ([6]; strain MSSE 14-2): 0.25 µg/mL (≈ 0.52 µM); MIC (anti-bacterial activity) ([6]; strain MSSE 14-3): 0.125 µg/mL (≈ 0.26 µM); MIC (anti-bacterial activity) ([6]; strain MSSE 14-4): 0.25 µg/mL (≈ 0.52 µM); MetHb % (n = 3) [9]: 4.12 ± 0.07%; probability of methemoglobin formation in blood compared with the control drugs LBM415 and GSK1322322 [9]: lower probability of methemoglobin formation in blood; inhibition at 30 µM [7]: 11%
CCCC[C@H](CN(O)C=O)C(=O)N1CC2(CC2)C[C@H]1C(=O)Nc1ccc(F)c[n+]1[O-] [Example 2]	1 (≈ 2.37 µM)	64 (≈ 151 µM)	128 (≈ 303 µM)	64 (≈ 151 µM)	0.125 (≈ 0.296 µM)	0.125 (≈ 0.296 µM)	0.125 (≈ 0.296 µM)	0.125 (≈ 0.296 µM)	0.25 (≈ 0.592 µM)	0.25 (≈ 0.592 µM)	0.125 (≈ 0.296 µM)	0.125 (≈ 0.296 µM)	0.03 (≈ 0.071 µM)	0.25 (≈ 0.592 µM)	0.5 (≈ 1.18 µM)	0.5 (≈ 1.18 µM)	128 (≈ 303 µM)	0.06 (≈ 0.142 µM)	0.06 (≈ 0.142 µM)	0.125 (≈ 0.296 µM)	MIC ([3]; Staphylococcus aureus, MRSA, range over strains, read-out: minimum inhibitory concentration MIC against methicillin-resistant Staphylococcus (MRSA)): 0.125 to 0.25 µg/mL (≈ 0.296 to 0.592 µM); MIC (anti-bacterial activity) ([6]; strain MSSE 14-1): 0.03 µg/mL (≈ 0.071 µM); MIC (anti-bacterial activity) ([6]; strain MSSE 14-2): 0.125 µg/mL (≈ 0.296 µM); MIC (anti-bacterial activity) ([6]; strain MSSE 14-3): 0.03 µg/mL (≈ 0.071 µM); MIC (anti-bacterial activity) ([6]; strain MSSE 14-4): 0.03 µg/mL (≈ 0.071 µM); MetHb % (n = 3) [9]: 3.32 ± 0.05%; probability of methemoglobin formation in blood compared with the control drugs LBM415 and GSK1322322 [9]: lower probability of methemoglobin formation in blood; inhibition at 30 µM [7, 11]: 2%
CCCC[C@H](CN(O)C=O)C(=O)N1CC2(CC2)C[C@H]1C(=O)Nc1cccc(-c2cccnc2)c1 [Example 7, (S)-5-((R)-2-((N-hydroxyformamido)methyl)hexylcarbonyl)-N-(3-(pyridin-3-yl)phenyl)-5-5-azaspiro[2.4]heptane-6-amide]																					MetHb % (n = 3) [9]: 2.24 ± 0.05%; probability of methemoglobin formation in blood compared with the control drugs LBM415 and GSK1322322 [9]: lower probability of methemoglobin formation in blood; inhibition at 30 µM [7]: 23%
